pKd: −log10 of the molar value. Several values for one entry are separate records, joined by “and”; a condition that tells them apart may be missing. Equal values may be shown once.
Legend:
[1] = molecular target: human IgG; details: previously reported, Gong et al. 2016; cited from earlier work
[2] = molecular target: T1, Trastuzumab (TMab) (Homo sapiens, UniProt P01857, D239E/L241M); test: Photoconjugation (UV 365 nm) of peptide to Trastuzumab, DAR by LC-MS
T1 construct: Genentech (HERCEPTIN)
Experimental: (§1) Example 2: Antibody conjugation. Conjugation reactions for photocrosslinking peptides were performed open and uncovered in V-bottom, clear, polystyrene 96-well plates (ThermoFisher, product #2605) with a final reaction volume of 50 μL. Unused wells were filled with 150 μL of deionized water. Optimized reactions were performed in 20 mM histidine acetate buffer, pH=5.5, with a final concentration of 48 μM antibody, 480 μM photo-crosslinking peptide, 480 μM 5-hydroxyindole ([…], Sigma-Aldrich), with 11% (v/v) DMSO. […] The DAR was assessed by LC-MS analysis of Fc/2 or heavy chain fragments generated by IdeS or DTT treatments of Trastuzumab, respectively.

[3] = test system: Rituximab (human IgG1); test: Photoconjugation of peptide to Rituximab, DAR
[4] = molecular target: mouse IgG1 antibody (D) (Mus musculus, UniProt P01868); test: Photoconjugation of peptide to mouse IgG1 antibody D, DAR; details: Mouse IgG1 (no Met-252)
Experimental: as §1

[5] = molecular target: T1, Trastuzumab (TMab); test: SPR binding of peptides to immobilized Trastuzumab; details: for pKd: TMab, FIG. 3C; for reduced binding affinity (Kd fold decreased) compared to the Fc-III peptide: relative to Fc-III
Experimental: Example 2: SPR binding experiments. Kinetics of peptide binding to Trastuzumab were measured by surface plasmon resonance (SPR) on a Biacore 3000 instrument (GE Healthcare) using a previously established method. (Gong, Y.; et al., Development of the Double Cyclic Peptide Ligand for Antibody Purification and Protein Detection. Bioconjugate chemistry 2016). An amine coupling kit (GE Healthcare) was used to immobilize Trastuzumab to the surface of a CM5 Sensor Chip (GE Healthcare). All injections were double-referenced with real-time reference channel subtraction and buffer blank injections. Data were analyzed using the BiaEvaluation software (version 4.1, GE Healthcare).

[6] = molecular target: rabbit IgG (C) (Oryctolagus cuniculus, UniProt P01870); test: Photoconjugation of peptide to rabbit IgG antibody C, DAR
Experimental: as §1

[7] = molecular target: human IgG4 antibody (A) (Homo sapiens, UniProt P01861); test: Photoconjugation of peptide to human IgG4 antibody A, DAR
Experimental: as §1

[8] = molecular target: human IgG4 "YTE" mutant (B) (Homo sapiens, UniProt P01861, M132Y/S134T/T136E); test: Photoconjugation of peptide to human IgG4 YTE mutant antibody B, DAR; details: Human IgG4 YTE mutant (no Met-252)
Experimental: as §1

[9] = molecular target: T1, Trastuzumab (TMab); test: Photoconjugation (UV 365 nm) of peptide to Trastuzumab, DAR by LC-MS; details: PBS, micro-centrifuge tubes on ice, hand-held 365 nm lamp, one hour
[10] = 96-well plate directly under 365 nm lamp, room temperature, 4.5 hours

With `CC(=O)N[C@@H](CC(=O)O)C(=O)N[C@H]1CSSC[C@@H](C(=O)N[C@H](C(N)=O)[C@@H](C)O)NC(=O)[C@H](Cc2c[nH]c3ccccc23)NC(=O)[C@H](C(C)C)NC(=O)[C@H](CC(C)C)NC(=O)[C@H](CCC(=O)O)NC(=O)CNC(=O)[C@H](CC(C)C)NC(=O)[C@H](Cc2c[nH]cn2)NC(=O)[C@H](Cc2c[nH]c3ccccc23)NC(=O)[C@H](C)NC1=O` [Fc-III] as the molecule, how does the pKd [1] read?
The pKd was 7.15.

What does the source list for `CC(=O)N[C@@H](CC(=O)O)C(=O)N[C@H]1CSSC[C@@H](C(=O)N[C@H](C(N)=O)[C@@H](C)O)NC(=O)[C@H](Cc2c[nH]c3ccccc23)NC(=O)[C@H](Cc2ccc(C(=O)c3ccccc3)cc2)NC(=O)[C@H](CC(C)C)NC(=O)[C@H](CCC(=O)O)NC(=O)CNC(=O)[C@H](CC(C)C)NC(=O)[C@H](Cc2c[nH]cn2)NC(=O)[C@H](Cc2c[nH]c3ccccc23)NC(=O)[C@H](C)NC1=O` [BPA7, Ac-DCAWHLGELBWCT-NH2]?
DAR [2, 10]: ~1.7; DAR (photoconjugation efficiency) ([2]; FIG. 3C, peptide series comparison): 1.9; DAR ([2]; Row B: 267 μM BPA7, PBS, on ice (~4° C.), 4 hours): 1.5; DAR ([2]; Row C: 267 μM BPA7, histidine-acetate pH 5.5, on ice, 4 hours): 1.8; DAR ([2]; Row D: 267 μM BPA7, PBS, 267 μM 5-hydroxyindole, on ice, 4 hours): 1.4; DAR ([2]; Row E: 480 μM BPA7 (10-fold over antibody), histidine-acetate pH 5.5, 5-hydroxyindole, 6 hours, on ice): 1.9; DAR reached upon photoconjugation to BPA7 ([2]; Trastuzumab, Human IgG1): 2.0; DAR ([2]; irradiation chamber, Row A: 267 μM BPA7, PBS, room temperature, 4 hours): 1.8; DAR reached upon photoconjugation to BPA7 [3]: 2.0; DAR reached upon photoconjugation to BPA7 [4]: 0; pKd [5]: ~4.15 and 4.15; bound to TMab less tightly than BPA9 ([5]; relative to BPA9): ~150 fold; reduced binding affinity (Kd fold decreased) compared to the Fc-III peptide [5]: greater than 4000 fold; DAR reached upon photoconjugation to BPA7 [6]: 1.2; DAR reached upon photoconjugation to BPA7 [7]: 2.0; DAR reached upon photoconjugation to BPA7 [8]: 0.0; drug-to-antibody ratio (DAR) [9]: ~0.04

With `CC(=O)N[C@@H](CC(=O)O)C(=O)N[C@H]1CSSC[C@@H](C(=O)N[C@H](C(N)=O)[C@@H](C)O)NC(=O)[C@H](Cc2c[nH]c3ccccc23)NC(=O)[C@H](C(C)C)NC(=O)[C@H](CC(C)C)NC(=O)[C@H](CCC(=O)O)NC(=O)CNC(=O)[C@H](Cc2ccc(C(=O)c3ccccc3)cc2)NC(=O)[C@H](Cc2c[nH]cn2)NC(=O)[C@H](Cc2c[nH]c3ccccc23)NC(=O)[C@H](C)NC1=O` [BPA4, Ac-DCAWHBGELVWCT-NH2] as the molecule, how does the DAR [2, 10] read?
Its DAR is 1.2.

What about the pKd [5] of the same molecule?
The pKd was roughly 4.52.

What about the “reduced binding affinity (Kd fold decreased) compared to the Fc-III peptide” value [5] of the same molecule?
The value was “greater than 1700 fold”.

With “Ac-DCAWBLGELVWCT-NH2 (DCAWXLGELVWCT; Ac, NH2; BPA non-natural residue; /note=“N-term Ac”; MOD_RES (5)..(5) p-benzoyl-L-phenylalanine; /note=“C-term NH2”) [BPA3, B = BPA]” as the molecule, how does the DAR [2, 10] read?
Its DAR is 0.2.
